# Measured values: US7091238B1, “Thienylhydrazon with digitalis-like properties (positive inotropic effects)” (University of Maryland, priority 1999, dated 2006)
# Entries after “also recorded” stand apart in the source; their conditions may differ.
# How the values were obtained:
# [1] = LD 50 in dogs; format: in vivo; settings: dog, in vivo
# Experimental: (§1) LASSBio-294 has very low toxic effects. This was tested in whole mouse, rat, and dog models (Greaves, P. (1998) Exp. Toxicol. Pathol. 50, 283). These models are commonly used to predict toxicity in humans (Chou, W. L., Robbie G., Chung, S. M., Wu, T. C., and Ma, C. (1998) Pharm. Res. 15, 1474). […] These tests predict LASSBio-294 can be dosed in humans to achieve therapeutic plasma levels without significant risk of toxicity.
# [2] = test system: dogs; test: LD 50 in dogs; format: in vivo; settings: dogs
# Experimental: as §1
# [3] = test system: isolated rat heart; test: Electrocardiogram of isolated heart (modified Langendorff perfusion); settings: isolated rat heart without pre-load; 10, 50, 100 μM
# Experimental: FIG. 4. Hearts of adult rats were quickly removed and placed in an aorta retrograde perfusion system (modified Langendorrff) for measurement of electrocardiogram (ECG).
# a Recordings of electrocardiogram (ECG) of isolated rat heart are shown in FIG. 4 which compare control, LASSBio-294 treatment, 10 uM, 50 μM and 100 μM and post-treatment wash. […] FIG. 5 illustrates a test of change in isometric tension induced by LASSBio-294 in isolated hearts under preload. Concentration of LASSBio-294 in the bathing solution is 50 μM, which is half of the highest concentration tested in the ECG tests described in FIG. 4. Hearts were treated under a pre-load of 1 g; control was compared to LASSBio-294 and wash. […] This effect was lost in the wash out period. The pre-load tension test is considered to be an animal model of congestive heart disease. Comparing the effect of drugs with this test is predictive of therapeutic effect of treatment in human congestive heart disease. General Method
# Hearts were quickly removed and placed in an aorta retrograde perfusion system for measurement of ECG. Increasing concentrations of LASSBio-294 were added to the bathing solution. The system equilibrated for 5 min. before measurement of isometric tension after each addition.
# [4] = test system: single muscle fiber; test: Fatigue development in single amphibian muscle fibers under repetitive tetanic stimulation; format: cell-based, frog, rana pipiens
# Experimental: FIG. 17. Time course of fatigue development. Fatigue was produced by 60 Hz, 0.8 sec tetanic stimulations repeated every 4.75 sec with a twitch elicited 2.2 sec after each tetanic stimulation. a) single tetanus. b) repeated tetanic stimulations. Notice the time calibration. A) In 50 μM of DMSO only B) Same as in A, but the fiber was bathed with 50 μM of compound LASSBio-294.
# FIG. 28. Time (in min) for tetanic force to decrease (fatigue) to 50% of the original tetanic force during repetitive stimulations as in FIG. 17. Left column in 50 μM of DMSO only (˜6 in). Right column in 50 μM of LASSBio-294 (˜9 min).
# FIG. 29. Time of recovery to 80% of the pre-fatigue tetanic force. Left column in 50 μM of DMSO only (˜90 min). Right column in 50 μM of LASSBio-294 (˜10 min).
# c. […] A is 50 μM DMSO in Ringer's solution, B is 50 μM LASSBio-294. The time to fatigue in LASSBio-294-treated is approximately 50% longer than control.
# The tests in amphibians were performed in isolated single muscle cells freshly isolated from either the semitendinous or the tibialis anterior muscles of the frog, rana pipiens. The isolated muscle cells were left resting for at least half an hour in Ringer's solution. The fibers were then stimulated with single, low-voltage, electric shocks. If fibers gave brisk twitches and had no signs of membrane damage, they were used. Otherwise, they were discarded. Healthy fibers were transferred to the experimental chamber, which consisted of a 0.3 ml narrow channel where the solutions could be changed several times within five seconds. One tendon of the fiber was gripped with a small clamp and the other tendon was attached to a hook of an Ekhart;s type force transducer. The stimulating electrode consisted of platinum wires placed to each side of the fiber. The muscle fibers were stretched 1.3 times their slack length to reach approximately an average sarcomere length of 1.6 μm.
# The fibers were stimulated with single electric pulses of 0.5 msec duration and variable voltage. The voltage was increased until the threshold for contraction was reached. […]
# [5] = test system: Na^+/K^+-ATPase extracted from heart muscle or gastrocnemius muscle; test: Effect on Na+/K+-ATPase; format: biochemical; settings: enzyme from rat heart or gastrocnemius muscle
smiles,measurement,setting,value
"O=C(NN=Cc1cccs1)c1ccc2c(c1)OCO2 [LASSBio-294, 3,4-methylenedioxybenzoyl-2-thienylhydrazone]",LD50,[1],1500 mg/kg
same,LD 50 relative to the effective dose,[2],> 1000 fold
same,effect on ECG,[3],No treatment had any effect on ECG; also recorded: no change
same,"time to fatigue, longer than control","[4]; 50 μM vs 50 μM DMSO, 60 Hz 0.8 sec tetanic stimulations",approximately 50%
same,time for tetanic force to decrease (fatigue) to 50% of the original tetanic force,"[4]; 50 μM, repetitive stimulations",~9 min
same,resistance to muscle fatigue,[4]; treated skeletal muscle fibers vs control fibers,increased resistance to muscle fatigue
same,effect on Na^+/K^+-ATPase,[5],did not affect
